Measured values from the supplement of paper PMC7017272.
± gives the standard deviation of the averaged measurements.

Key:
Assay in all cases: maximal % inhibition of viability relative to DMSO; higher = stronger effect
Conditions in all cases: treatment time: 3 days
UT-SCC-40 = tested on: UT-SCC-40
Description: (§1)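 HNSCC cell lines (500 cells/well, 384-well) were cultured on plastic, on top of (2D) or embedded (3D) in Matrigel or human leiomyoma matrix Myogel (500 ug/mL; Myogel 3D mixed with rat collagen I). Cells were treated for 3 days with 5 ten-fold concentrations of each drug, and viability was read by CellTiter-Glo. Viability was normalised to DMSO and benzethonium chloride controls and fitted with the FIMM DSRT pipeline to give IC50 (nM), maximal % inhibition and DSS. Suffixes _1/_2/_3 are replicates. Only inhibition-mode (IC50) fits are kept.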

UT-SCC-24B = tested on: UT-SCC-24B
Description: as §1

UT-SCC-42B = tested on: UT-SCC-42B
Description: as §1

UT-SCC-73 = tested on: UT-SCC-73
Description: as §1

UT-SCC-8 = tested on: UT-SCC-8
Description: as §1

UT-SCC-28 = tested on: UT-SCC-28
Description: as §1

UT-SCC-81 = tested on: UT-SCC-81
Description: as §1

UT-SCC-44 = tested on: UT-SCC-44
Description: as §1

UT-SCC-14 = tested on: UT-SCC-14
Description: as §1

UT-SCC-106A = tested on: UT-SCC-106A
Description: as §1

[1] = culture condition: embedded in Matrigel
[2] = culture condition: embedded in Myogel + collagen I
[3] = culture condition: on top of Matrigel
[4] = culture condition: on top of Myogel
[5] = culture condition: plastic 2D (no matrix)

Question: Which “maximal % inhibition of viability” value (UT-SCC-40; [1]) does the source give for `COc1ncc(-c2ccc3nccc(-c4ccnnc4)c3c2)cc1NS(=O)(=O)c1ccc(F)cc1F` [Omipalisib] here?
Answer: 98.67 ± 0.4%

Question: And the “maximal % inhibition of viability” value (UT-SCC-40; [2])?
Answer: 89.9 ± 0.76%

Question: What about the “maximal % inhibition of viability” value (UT-SCC-40; [3]) of the same compound?
Answer: 96.4 ± 1.7%

Question: And the “maximal % inhibition of viability” value (UT-SCC-40; [4])?
Answer: 85.8 ± 1.6%

Question: What about the “maximal % inhibition of viability” value (UT-SCC-40; [5]) of the same compound?
Answer: 88.4 ± 2%

Question: And the “maximal % inhibition of viability” value (UT-SCC-24B; [1])?
Answer: 95.6 ± 0.79%

Question: And the “maximal % inhibition of viability” value (UT-SCC-24B; [2])?
Answer: 96.6 ± 1.4%

Question: What about the “maximal % inhibition of viability” value (UT-SCC-24B; [3]) of the same compound?
Answer: 94.8 ± 1.3%

Question: What about the “maximal % inhibition of viability” value (UT-SCC-24B; [4]) of the same compound?
Answer: 92 ± 1.2%

Question: And the “maximal % inhibition of viability” value (UT-SCC-24B; [5])?
Answer: 96.27 ± 0.55%

Question: What about the “maximal % inhibition of viability” value (UT-SCC-42B; [1]) of the same compound?
Answer: 96.3 ± 0.7%

Question: What about the “maximal % inhibition of viability” value (UT-SCC-42B; [3]) of the same compound?
Answer: 91.1 ± 1.4%

Question: What about the “maximal % inhibition of viability” value (UT-SCC-42B; [4]) of the same compound?
Answer: 84 ± 1.2%

Question: And the “maximal % inhibition of viability” value (UT-SCC-42B; [5])?
Answer: 86.7 ± 1.1%

Question: And the “maximal % inhibition of viability” value (UT-SCC-73; [1])?
Answer: 91.2 ± 0.27%

Question: What about the “maximal % inhibition of viability” value (UT-SCC-73; [2]) of the same compound?
Answer: 89.6 ± 3.3%

Question: What about the “maximal % inhibition of viability” value (UT-SCC-73; [3]) of the same compound?
Answer: 90.7 ± 1.4%

Question: And the “maximal % inhibition of viability” value (UT-SCC-73; [4])?
Answer: 90 ± 1.3%

Question: And the “maximal % inhibition of viability” value (UT-SCC-73; [5])?
Answer: 87.9 ± 1.4%

Question: What about the “maximal % inhibition of viability” value (UT-SCC-8; [1]) of the same compound?
Answer: 99.57 ± 0.25%

Question: And the “maximal % inhibition of viability” value (UT-SCC-8; [2])?
Answer: 98.2 ± 0.56%

Question: What about the “maximal % inhibition of viability” value (UT-SCC-8; [3]) of the same compound?
Answer: 98.5 ± 1.1%

Question: What about the “maximal % inhibition of viability” value (UT-SCC-8; [4]) of the same compound?
Answer: 96.8 ± 1%

Question: And the “maximal % inhibition of viability” value (UT-SCC-8; [5])?
Answer: 97.87 ± 0.61%

Question: And the “maximal % inhibition of viability” value (UT-SCC-28; [1])?
Answer: 60.7 ± 5.8%

Question: What about the “maximal % inhibition of viability” value (UT-SCC-28; [2]) of the same compound?
Answer: 83 ± 5.5%

Question: And the “maximal % inhibition of viability” value (UT-SCC-28; [3])?
Answer: 64.3 ± 4.8%

Question: What about the “maximal % inhibition of viability” value (UT-SCC-28; [5]) of the same compound?
Answer: 60.8 ± 3.6%

Question: What about the “maximal % inhibition of viability” value (UT-SCC-81; [1]) of the same compound?
Answer: 97.77 ± 0.51%

Question: And the “maximal % inhibition of viability” value (UT-SCC-81; [2])?
Answer: 89.1 ± 0.91%

Question: What about the “maximal % inhibition of viability” value (UT-SCC-81; [3]) of the same compound?
Answer: 96.83 ± 0.76%

Question: What about the “maximal % inhibition of viability” value (UT-SCC-81; [4]) of the same compound?
Answer: 90.3 ± 1.4%

Question: And the “maximal % inhibition of viability” value (UT-SCC-81; [5])?
Answer: 91.9 ± 2.2%

Question: And the “maximal % inhibition of viability” value (UT-SCC-44; [1])?
Answer: 52.5 ± 1.9%

Question: What about the “maximal % inhibition of viability” value (UT-SCC-44; [2]) of the same compound?
Answer: 58.5 ± 5.7%

Question: What about the “maximal % inhibition of viability” value (UT-SCC-44; [3]) of the same compound?
Answer: 54.8 ± 4.2%

Question: And the “maximal % inhibition of viability” value (UT-SCC-44; [4])?
Answer: 62.1 ± 5.8%

Question: And the “maximal % inhibition of viability” value (UT-SCC-44; [5])?
Answer: 56 ± 3.9%

Question: And the “maximal % inhibition of viability” value (UT-SCC-14; [1])?
Answer: 94.8 ± 1.1%

Question: And the “maximal % inhibition of viability” value (UT-SCC-14; [2])?
Answer: 92.2 ± 1.3%

Question: And the “maximal % inhibition of viability” value (UT-SCC-14; [3])?
Answer: 93.9 ± 1.9%

Question: What about the “maximal % inhibition of viability” value (UT-SCC-14; [4]) of the same compound?
Answer: 90 ± 2.3%

Question: What about the “maximal % inhibition of viability” value (UT-SCC-14; [5]) of the same compound?
Answer: 92.47 ± 0.81%

Question: What about the “maximal % inhibition of viability” value (UT-SCC-106A; [1]) of the same compound?
Answer: 79.7 ± 2.2%

Question: And the “maximal % inhibition of viability” value (UT-SCC-106A; [2])?
Answer: 64.2 ± 3.3%

Question: What about the “maximal % inhibition of viability” value (UT-SCC-106A; [3]) of the same compound?
Answer: 81.2 ± 0.87%

Question: And the “maximal % inhibition of viability” value (UT-SCC-106A; [4])?
Answer: 69.7 ± 2.8%

Question: What about the “maximal % inhibition of viability” value (UT-SCC-106A; [5]) of the same compound?
Answer: 81.53 ± 0.67%
